Where a name gives a salt, the structure may show the parent alone. Read-outs that look alike come from different tables or passages of the source.
Experiments:
[1] = target: human NR1/NR2B ion channels (Homo sapiens (Human), UniProt Q05586+Q13224); assay: HNR2BC: calcium influx assay on cloned human NR1/NR2B ion channels expressed in HEK cells; type: cell-based; details: HEK cells with hNR1/NR2B, 100 μM glutamate + 100 μM glycine, 3 parameter plot
Description: HNR2BC: Effects of Test Articles on Cloned Human NR1/NR2B Ion Channels Expressed in Mammalian Cells
The ability of test compounds to act as an antagonist of NR1/NR2B was evaluated with a calcium influx assay (Calcium 5 Assay Kit, Molecular Devices).
For the antagonist assessment, NR1/NR2B was activated with the positive control agonist (Mg^2+-free HBPS+100 μM glutamic acid+100 μM glycine).
A HEK cell line, stable transfected with hNR1/NR2B was used. This tetracycline inducible cell line is transfected with GRIN1 (GeneBank accession number NM_007327.2) and GRIN2B (GeneBank accession number NM_000834.3.). The cells were cultured in cell culture flasks with DMEM/F12 supplemented with 10% FCS, 1% PenStrep and a selection of additional antibiotics.
Forty-Eight (48) hours before the assay the cells were plated into 96-well black well, flat clear bottom microtiter plates at a density of 50000 cells/well. Twenty-Four (24) hours later the receptor expression was induced by the addition of 1 μg/ml tetracycline in the presence of 2 mM ketamine and 200 μM 7-CKA. After 24 h of receptor induction the plates were used for the assay.
The medium was removed and the cells were loaded with 200 μl loading buffer (Molecular Devices) in Mg2+-free HBPS containing 100 μM 7-CKA at 37° C. for one (1) hour.
The test compounds were then solubilized in 100% DMSO and diluted to yield eight (8) different concentrations in 100% DMSO. A 96 well drug plate was prepared by diluting with water and glycine/glutamate to a 5-fold of final test concentration. Fluorescence intensity of the cells in the plate was measured in a FlexStation using an excitation wavelength of 485 nm and an emission wavelength of 525 nm. Twenty (20) seconds after starting the recordings the compounds together with the agonists glycine (100 μM) and glutamate (100 μM) were added into the wells and the fluorescence measured for ninety (90) seconds in summary.
The IC50 values provided in the paragraph below were determined using a 3 parameter plot.

hERG receptor = hERG receptor (Homo sapiens (Human), UniProt Q12809); assay: HERGBD: inhibition of specific [3H]-Dofetilide binding to the hERG receptor
Sequence of hERG receptor (Q12809 whole entry): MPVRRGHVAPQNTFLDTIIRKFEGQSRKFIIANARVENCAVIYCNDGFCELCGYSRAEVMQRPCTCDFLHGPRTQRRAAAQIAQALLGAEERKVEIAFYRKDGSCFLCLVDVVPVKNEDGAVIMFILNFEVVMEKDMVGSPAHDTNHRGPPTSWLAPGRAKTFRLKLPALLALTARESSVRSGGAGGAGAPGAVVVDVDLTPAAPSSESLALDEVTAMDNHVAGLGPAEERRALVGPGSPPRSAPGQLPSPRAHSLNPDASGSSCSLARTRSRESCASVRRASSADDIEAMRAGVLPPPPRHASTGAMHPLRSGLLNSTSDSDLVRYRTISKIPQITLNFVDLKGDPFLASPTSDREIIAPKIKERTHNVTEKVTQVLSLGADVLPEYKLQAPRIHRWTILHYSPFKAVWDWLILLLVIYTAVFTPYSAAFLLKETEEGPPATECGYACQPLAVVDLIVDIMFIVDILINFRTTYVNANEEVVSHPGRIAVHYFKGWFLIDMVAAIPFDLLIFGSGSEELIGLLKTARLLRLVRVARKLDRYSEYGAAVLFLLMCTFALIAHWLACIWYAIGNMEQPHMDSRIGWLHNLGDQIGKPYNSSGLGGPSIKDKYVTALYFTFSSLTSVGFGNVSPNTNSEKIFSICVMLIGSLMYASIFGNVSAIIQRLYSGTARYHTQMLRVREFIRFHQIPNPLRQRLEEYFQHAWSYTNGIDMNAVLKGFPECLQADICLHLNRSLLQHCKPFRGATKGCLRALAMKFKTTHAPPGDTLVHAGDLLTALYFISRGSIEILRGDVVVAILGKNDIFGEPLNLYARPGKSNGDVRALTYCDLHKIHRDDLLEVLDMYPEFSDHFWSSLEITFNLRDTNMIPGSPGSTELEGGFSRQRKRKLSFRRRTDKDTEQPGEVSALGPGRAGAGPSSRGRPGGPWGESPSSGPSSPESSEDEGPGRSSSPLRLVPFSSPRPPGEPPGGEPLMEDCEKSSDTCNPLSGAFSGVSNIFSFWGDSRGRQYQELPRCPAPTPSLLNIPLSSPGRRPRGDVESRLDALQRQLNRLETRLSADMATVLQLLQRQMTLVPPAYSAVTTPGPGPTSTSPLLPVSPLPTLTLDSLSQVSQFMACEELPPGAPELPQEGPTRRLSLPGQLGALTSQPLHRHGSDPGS
Description: Inhibition of Specific Binding to the hERG—Receptor (HERGBD)
A HEK cell line with stable transfected human ERG receptor was used for the assay. The cells were grown adherently and maintained in DULBECCOS' MEM medium with 10% FBS, 1% non-essential amino acids, 1% Penicillin/Streptomycin and 400 μg/ml G418 (Calbiochem).
For binding assays and membrane preparations the cell culture medium was removed, cells were washed with PBS. Crude membranes for radioligand binding experiments were prepared by scraping the cells off the dishes in ice cold 20 mM HEPES/0.1 mM KCl/pH 7.2. The cell suspension was homogenized on ice (Ultra turrax, 3×20 sec.) and the homogenate was spun for 10 min (1° C., 1000 g, OPTIMA, SW28, 2800 U/min). The supernatant was than centrifuged for 40 min at 100000 g (1° C., OPTIMA, SW28, 23000 U/min). The membrane pellet was re-suspended in 20 mM HEPES/0.1 mM KCl pH 7.2, frozen and stored at −80° C.
After thawing on the day of the assay, the membrane suspension was diluted further with 20 mM HEPES/0.1 mM KCl/pH 7.2.
The incubation mixture of 200 μl contained 1.5 nmol/l 3H-Dofetilide, optimized amount of membrane preparation, 20 mM HEPES/0.1 mM KCl/(pH 7.2) and inhibitor in 1% DMSO. Nonspecific binding was estimated in the presence of […] Dofetilide. The samples were incubated for 90 min. at RT.
Binding was terminated by filtration of the incubated membrane preparations using Filtermat B (Pharmacia, Uppsala Sweden) and a Micro Cell Harvester (Skatron, Lier, Norway). The Filtermat B had been presoaked with 1% polyethylen imine and carefully washed with 0.05 M Tris/HCl-buffer pH=7.7 after the filtration to separate free and bound radioactivity. The filters were counted in a scintillation counter (Betaplate 1205, Berthold, Wildbad, Germany) in order to determine the specific binding of [^3H]-Dofetilide.
The optimal amount of membrane preparation in the assay was determined and optimized for each membrane preparation separately in front of using the membranes in compound testing.
For pipetting of the incubation mixture we routinely use the robot Biomek2000 (Fa. Beckman).

rat NR1/NR2B receptor = rat NR1/NR2B receptor (Rattus norvegicus (Rat), UniProt P35439+Q00960); assay: NR2B binding assay: inhibition of specific [3H]-Ifenprodil binding to the rat NR1/NR2B receptor; details: [3H]-Ifenprodil binding, rat brain membranes
Sequence of rat NR1/NR2B receptor (Q00960 27-1482, other chains not shown): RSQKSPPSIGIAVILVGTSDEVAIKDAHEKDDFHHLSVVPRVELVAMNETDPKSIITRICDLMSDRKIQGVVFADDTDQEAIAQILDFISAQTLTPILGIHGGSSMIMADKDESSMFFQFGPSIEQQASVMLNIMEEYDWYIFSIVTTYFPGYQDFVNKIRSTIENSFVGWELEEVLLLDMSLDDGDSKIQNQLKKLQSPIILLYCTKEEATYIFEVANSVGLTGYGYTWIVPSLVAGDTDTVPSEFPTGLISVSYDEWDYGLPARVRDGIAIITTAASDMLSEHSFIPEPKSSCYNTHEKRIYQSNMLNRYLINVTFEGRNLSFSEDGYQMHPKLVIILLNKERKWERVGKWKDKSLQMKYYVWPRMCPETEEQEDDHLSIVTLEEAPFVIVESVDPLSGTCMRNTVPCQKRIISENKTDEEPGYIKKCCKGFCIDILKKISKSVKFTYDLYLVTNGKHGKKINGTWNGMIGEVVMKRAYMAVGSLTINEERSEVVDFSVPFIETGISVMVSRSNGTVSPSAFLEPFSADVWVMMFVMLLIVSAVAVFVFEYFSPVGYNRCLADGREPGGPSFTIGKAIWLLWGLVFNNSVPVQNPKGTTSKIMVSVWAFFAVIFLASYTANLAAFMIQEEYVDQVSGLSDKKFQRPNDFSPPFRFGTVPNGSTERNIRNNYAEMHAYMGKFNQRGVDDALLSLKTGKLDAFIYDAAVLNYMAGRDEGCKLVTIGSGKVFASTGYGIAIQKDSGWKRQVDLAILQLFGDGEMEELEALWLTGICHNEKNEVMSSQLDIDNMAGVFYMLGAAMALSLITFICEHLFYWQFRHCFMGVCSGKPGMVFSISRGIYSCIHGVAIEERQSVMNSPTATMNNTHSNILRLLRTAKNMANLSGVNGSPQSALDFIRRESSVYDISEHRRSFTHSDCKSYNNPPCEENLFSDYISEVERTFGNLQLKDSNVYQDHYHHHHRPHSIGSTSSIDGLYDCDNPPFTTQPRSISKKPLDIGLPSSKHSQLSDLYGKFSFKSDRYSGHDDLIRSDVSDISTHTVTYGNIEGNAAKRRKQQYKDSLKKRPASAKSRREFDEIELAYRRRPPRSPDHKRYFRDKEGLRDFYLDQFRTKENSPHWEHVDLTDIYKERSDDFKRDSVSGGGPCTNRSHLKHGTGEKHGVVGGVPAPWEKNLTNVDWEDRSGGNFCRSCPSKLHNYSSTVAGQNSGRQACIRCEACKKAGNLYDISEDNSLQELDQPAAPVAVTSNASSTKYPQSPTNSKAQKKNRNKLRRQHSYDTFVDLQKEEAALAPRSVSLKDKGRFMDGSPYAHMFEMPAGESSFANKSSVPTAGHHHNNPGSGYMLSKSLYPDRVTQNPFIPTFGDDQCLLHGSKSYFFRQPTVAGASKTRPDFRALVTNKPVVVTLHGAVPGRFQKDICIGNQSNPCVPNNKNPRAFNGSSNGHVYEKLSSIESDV
Description: Biological Assays Inhibition of Specific Binding to the Rat NR1/NR2B Receptor
Male Wistar rats (180 to 200 g) were killed by suffocation in a CO2 chamber for two minutes. Whole brains without cerebellum were removed and dissected on ice, placed into closed vials and stored at −70° C.
Membrane fractions were prepared and tested using standard techniques. At the time of the assay, 1 g of the brains was placed into 25 ml of 50 mM Tris/10 mM EDTA buffer, pH 7.1, (25 vol. per g of original tissue) and homogenized for 30 sec at 20000 rpm with an Ultraturrax T25 (Jahnke & Kunkel, IKA-Labortechnik, Staufen, Germany).
The supernatant was discarded and the pellet was homogenized on ice for 30 sec at 20000 rpm with an Ultraturrax and again centrifuged at 48000 g for 30 minutes at 4° C. The resultant pellet was resuspended in 25 ml of 50 mM Tris/10 mM EDTA buffer, homogenized for 30 sec with an Ultraturrax, aliquoted, frozen at −70° C. and stored until use.
After thawing on the day of the assay, a 5 ml membrane aliquot was centrifuged at 48000 g for 30 min at 4° C. The pellet was resuspended in 5 ml of 5 mM Tris/1 mM EDTA buffer, pH 7.4, homogenized for 30 sec at 20000 rpm with an Ultraturrax and centrifuged at 48000 g for 30 min at 4° C. This was repeated twice. The final pellet was homogenized in 5 ml of 5 mM Tris/1 mM EDTA buffer at 4° C. with an Ultraturrax and used for the Ifenprodil-binding assay as described in the following.
Nonspecific binding was estimated in the presence of […] CP101.606. The samples were incubated for 60 min. at 4° C.
The incubation was terminated by filtration of the membrane preparations using Filtermat B (Pharmacia, Uppsala Sweden) and a Micro Cell Harvester (Skatron, Lier, Norway). The Filtermat B had been presoaked with 1% polyethylene imine and carefully washed with 50 mM Tris/HCl-buffer pH 7.7 after the filtration to separate free and bound radioactivity.
The optimal amount of membrane preparation in the assay was determined and optimized for each membrane preparation separately before the test.
For pipetting of the incubation mixture the robot Biomek2000 (Fa. Beckman) was used.
For determination of IC50 values the Hill-plot, 2-parameter-model was used.

[2] = [3H]-Dofetilide binding, membranes of HEK cells with human ERG receptor, read-out: IC50

Sequence of human NR1/NR2B ion channels (Q13224 27-1484, other chains not shown): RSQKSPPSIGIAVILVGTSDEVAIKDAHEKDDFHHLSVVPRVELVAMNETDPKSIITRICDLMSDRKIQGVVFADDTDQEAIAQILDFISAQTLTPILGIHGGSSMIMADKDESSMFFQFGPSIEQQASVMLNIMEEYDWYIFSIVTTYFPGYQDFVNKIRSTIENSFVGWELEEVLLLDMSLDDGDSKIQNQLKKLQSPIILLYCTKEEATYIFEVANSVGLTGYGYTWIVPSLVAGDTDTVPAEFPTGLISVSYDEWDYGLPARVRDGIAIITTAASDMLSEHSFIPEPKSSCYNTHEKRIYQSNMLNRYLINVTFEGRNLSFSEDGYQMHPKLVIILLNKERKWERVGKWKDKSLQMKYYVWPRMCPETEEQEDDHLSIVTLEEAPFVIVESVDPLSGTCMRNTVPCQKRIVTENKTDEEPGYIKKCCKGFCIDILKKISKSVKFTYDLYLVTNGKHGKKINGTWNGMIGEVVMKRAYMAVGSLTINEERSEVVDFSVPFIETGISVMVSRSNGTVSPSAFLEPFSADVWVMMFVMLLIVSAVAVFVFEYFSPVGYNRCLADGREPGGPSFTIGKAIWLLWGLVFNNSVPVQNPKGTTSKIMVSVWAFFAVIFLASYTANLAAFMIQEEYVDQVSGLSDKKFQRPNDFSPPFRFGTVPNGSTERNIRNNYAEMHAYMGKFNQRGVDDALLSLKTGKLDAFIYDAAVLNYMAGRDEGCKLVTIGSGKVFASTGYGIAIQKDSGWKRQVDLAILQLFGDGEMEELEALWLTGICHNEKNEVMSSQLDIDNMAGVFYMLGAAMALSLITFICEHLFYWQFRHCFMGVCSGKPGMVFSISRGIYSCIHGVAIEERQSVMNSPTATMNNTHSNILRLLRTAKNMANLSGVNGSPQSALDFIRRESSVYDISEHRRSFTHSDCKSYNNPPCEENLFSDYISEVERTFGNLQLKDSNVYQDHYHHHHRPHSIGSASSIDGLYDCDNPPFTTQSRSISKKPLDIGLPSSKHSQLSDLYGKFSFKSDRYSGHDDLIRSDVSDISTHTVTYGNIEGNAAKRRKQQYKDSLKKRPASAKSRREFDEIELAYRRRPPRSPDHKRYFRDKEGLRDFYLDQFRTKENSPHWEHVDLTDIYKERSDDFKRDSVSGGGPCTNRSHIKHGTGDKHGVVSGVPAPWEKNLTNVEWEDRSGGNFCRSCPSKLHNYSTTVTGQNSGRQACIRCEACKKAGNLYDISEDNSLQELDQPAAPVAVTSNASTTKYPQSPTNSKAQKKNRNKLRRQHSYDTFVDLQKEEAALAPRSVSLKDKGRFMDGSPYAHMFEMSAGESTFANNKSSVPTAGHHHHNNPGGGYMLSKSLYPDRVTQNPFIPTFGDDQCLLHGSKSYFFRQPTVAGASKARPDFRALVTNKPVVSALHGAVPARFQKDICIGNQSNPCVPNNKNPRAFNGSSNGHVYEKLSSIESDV

`FC(F)Oc1cc(-c2cnn(Cc3cc[nH]n3)c2)ccc1Cl` [Example 6] gave an IC50 [1] of 0.23 µM.

For `Fc1ccc(-c2cnn(Cc3cc[nH]n3)c2)cc1C(F)F` [Example 35, 4-[3-(Difluoromethyl)-4-fluoro-phenyl]-1-(1H-pyrazol-3-ylmethyl)pyrazole], the IC50 (hERG receptor) was 22.6 µM, the IC50 (rat NR1/NR2B receptor) was 0.0176 µM and the IC50 [1] was 0.69 µM.

For `FC(F)c1cc(-c2cnn(Cc3cc[nH]n3)c2)ccc1Cl` [Example 26, 4-[4-Chloro-3-(difluoromethyl)phenyl]-1-(1H-pyrazol-3-ylmethyl)pyrazole], the IC50 [1] was 0.89 µM.

`CCc1[nH]ncc1Cn1cc(-c2ccc(F)c(OC(F)F)c2)cn1` [Example 20, 4-[3-(difluoromethoxy)-4-fluoro-phenyl]-1-[(5-ethyl-1H-pyrazol-4-yl)methyl]pyrazole Tartrate] was tested, and the IC50 [1] was 5.97 µM.

`FC(F)Oc1cc(-c2cnn(Cc3ccn(C4CCCC4)n3)c2)ccc1Cl` [Example 12, 3-[[4-[4-Chloro-3-(difluoromethoxy)phenyl]pyrazol-1-yl]methyl]-1-cyclopentyl-pyrazole] showed an IC50 (hERG receptor) of 8.06 µM and an IC50 (rat NR1/NR2B receptor) of 0.28 µM.

`Cn1cc(Cn2cc(-c3ccc(Cl)c(OC(F)F)c3)cn2)cn1` [Example 4, 4-[4-Chloro-3-(difluoromethoxy)phenyl]-1-[(1-methylpyrazol-4-yl)methyl]pyrazole] was tested, and the IC50 [1] was 1.75 µM.

`CCn1cncc1Cn1cc(-c2ccc(Cl)c(C(F)F)c2)cn1` [Example 95, 4-(4-chloro-3-(difluoromethyl)phenyl)-1-((1-ethyl-1H-imidazol-5-yl)methyl)-1H-pyrazole] showed an IC50 (hERG receptor; [2]) of 6.36 µM and an IC50 (rat NR1/NR2B receptor) of 0.0635 µM.

Work on `Cc1cc(Cn2cc(-c3ccc(Cl)c(C(F)F)c3)cn2)n(C)n1` [Example 25, 5-[[4-[4-Chloro-3-(difluoromethyl)phenyl]pyrazol-1-yl]methyl]-1,3-dimethyl-pyrazole] yielded an IC50 (hERG receptor; [2]) of 49.6 µM and an IC50 (rat NR1/NR2B receptor) of 0.98 µM.

In the case of `Cn1cc(Cn2cc(-c3ccc(F)c(C(C)(F)F)c3)cn2)cn1` [Example 45, 4-[3-(1,1-difluoroethyl)-4-fluoro-phenyl]-1-[(1-methylpyrazol-4-yl)methyl]pyrazole Succinate], the IC50 (hERG receptor) is reported as 67.8 µM and the IC50 (rat NR1/NR2B receptor) is reported as 0.261 µM.

Work on `Cc1n[nH]c(C)c1CCn1cc(-c2ccc(Cl)cc2)cn1` [Example 73, 4-[2-[4-(4-chlorophenyl)pyrazol-1-yl]ethyl]-3,5-dimethyl-1H-pyrazole] yielded an IC50 (hERG receptor) of 98 µM and an IC50 (rat NR1/NR2B receptor) of 1.16 µM.

With `Cc1cc(Cn2cc(-c3ccc(Cl)c(F)c3)cn2)n(C)n1` [Example 60, 5-[[4-(4-chloro-3-fluoro-phenyl)pyrazol-1-yl]methyl]-1,3-dimethyl-pyrazole] the IC50 (hERG receptor; [2]) was 31.6 µM and the IC50 (rat NR1/NR2B receptor) was 2.17 µM.

Work on `Cn1ccc(Cn2cc(-c3ccc(Cl)c(C(F)(F)F)c3)cn2)n1` [Example 30, 3-[[4-[4-chloro-3-(trifluoromethyl)phenyl]pyrazol-1-yl]methyl]-1-methyl-pyrazole] yielded an IC50 (hERG receptor) of 3.47 µM and an IC50 (rat NR1/NR2B receptor) of 1.01 µM.

In the case of `CCn1ccc(Cn2cc(-c3ccc(Cl)c(OC(F)F)c3)cn2)n1` [Example 8, 3-[[4-[4-Chloro-3-(difluoromethoxy)phenyl]pyrazol-1-yl]methyl]-1-ethyl-pyrazole], the IC50 (hERG receptor) is reported as 41 µM and the IC50 (rat NR1/NR2B receptor) is reported as 0.281 µM.

`CC(F)(F)c1cccc(-c2cnn(Cc3cc[nH]n3)c2)c1` [Example 93, 3-[[4-(3-(1,1-difluoroethyl)-phenyl)pyrazol-1-yl]methyl]-1H-pyrazole Maleate] was tested, and the IC50 (hERG receptor; [2]) was 129 µM and the IC50 (rat NR1/NR2B receptor) was 0.0252 µM.

With `CCc1[nH]ncc1Cn1cc(-c2ccc(Cl)c(OC(F)F)c2)cn1` [Example 17, 4-[4-Chloro-3-(difluoromethoxy)phenyl]-1-[(5-ethyl-1H-pyrazol-4-yl)methyl]pyrazole] the IC50 [1] was 3.7 µM.

In the case of `Cn1nccc1Cn1cc(-c2ccc(Cl)cc2)cn1` [Example 76, 4-(4-Chlorophenyl)-1-[(2-methylpyrazol-3-yl)methyl]pyrazole], the IC50 (hERG receptor) is reported as 120 µM and the IC50 (rat NR1/NR2B receptor) is reported as 7.35 µM.

Work on `Cc1n[nH]c(C)c1Cn1cc(-c2ccc(F)c(C(C)(F)F)c2)cn1` [Example 90] yielded an IC50 (hERG receptor) of 84 µM and an IC50 (rat NR1/NR2B receptor) of 0.422 µM.

`Cc1cc(-c2cnn(Cc3ccn(C)n3)c2)ccc1F` [Example 55, 3-[[4-(4-fluoro-3-methyl-phenyl)pyrazol-1-yl]methyl]-1-methyl-pyrazole Succinate] was tested, and the IC50 (hERG receptor) was 21.1 µM and the IC50 (rat NR1/NR2B receptor) was 0.871 µM.

In the case of `CCCc1cc(Cn2cc(-c3ccc(Cl)c(OC(F)F)c3)cn2)n[nH]1` [Example 15, 3-[[4-[4-Chloro-3-(difluoromethoxy)phenyl]pyrazol-1-yl]methyl]-5-propyl-1H-pyrazole], the IC50 (hERG receptor; [2]) is reported as 7.93 µM and the IC50 (rat NR1/NR2B receptor) is reported as 0.163 µM.

Work on `Cn1ccc(Cn2cc(-c3ccc(Cl)c(C(F)F)c3)cn2)n1` [Example 24, 3-[[4-[4-chloro-3-(difluoromethyl)phenyl]pyrazol-1-yl]methyl]-1-methyl-pyrazole] yielded an IC50 (hERG receptor; [2]) of 4.89 µM and an IC50 (rat NR1/NR2B receptor) of 0.41 µM.

Work on `Cn1nccc1Cn1cc(-c2ccccc2)cn1` [Example 87, 1-Methyl-5-[(4-phenylpyrazol-1-yl)methyl]pyrazole; succinic acid] yielded an IC50 (hERG receptor; [2]) of over 100 µM, an inhibition at 1 µM (rat NR1/NR2B receptor; 1 μM test compound, read-out: % INH @ 1 μM) of -3.3% and an inhibition at 10 µM (rat NR1/NR2B receptor; 10 μM test compound, read-out: % INH @ 10 μM) of 28.8%.

`Fc1cc(-c2cnn(Cc3cc[nH]n3)c2)cc(C(F)F)c1` [Example 47, 4-[3-(difluoromethyl)-5-fluoro-phenyl]-1-(1H-pyrazol-3-ylmethyl) pyrazole Succinate] showed an IC50 (hERG receptor) of over 100 µM and an IC50 (rat NR1/NR2B receptor) of 0.203 µM.

With `Cn1cc(Cn2cc(-c3ccc(F)c(C(F)F)c3)cn2)cn1` [Example 33, 4-[3-(Difluoromethyl)-4-fluoro-phenyl]-1-[(1-methylpyrazol-4-yl)methyl]pyrazole] the IC50 (hERG receptor) was over 100 µM and the IC50 (rat NR1/NR2B receptor) was 0.371 µM.

From patent US10155727B2, “Pyrazoles” (Janssen Pharmaceuticals, Inc., priority 2014, dated 2018)
